From BindingDB's records for doi:10.1074/jbc.M607913200 (Incyte, 2006)
Non-standard residues stand in square brackets, D forms with d. Residues, ends and D or L forms follow the SMILES beside them. F2Pmp = N[C@@H](Cc1ccc(C(F)(F)P(=O)(O)O)cc1)C(=O)O

Molecular target: T1, Tyrosine-protein phosphatase non-receptor type 1 [1-298] (Homo sapiens, UniProt P18031)
T1 construct: 1-298
T1 sequence (P18031 whole entry): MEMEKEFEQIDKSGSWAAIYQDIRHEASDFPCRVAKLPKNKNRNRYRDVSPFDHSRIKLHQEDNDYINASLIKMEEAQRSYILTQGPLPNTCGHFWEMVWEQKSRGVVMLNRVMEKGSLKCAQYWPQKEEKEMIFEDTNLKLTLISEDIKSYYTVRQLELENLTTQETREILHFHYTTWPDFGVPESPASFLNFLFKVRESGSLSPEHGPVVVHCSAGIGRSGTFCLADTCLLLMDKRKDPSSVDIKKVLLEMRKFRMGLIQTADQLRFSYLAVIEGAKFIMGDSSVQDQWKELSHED
Assay: Phosphatase Inhibition Assay

`NC(=O)[C@H](Cc1ccccc1)NC(=O)[C@@H](NC(=O)Cc1ccc(C(F)(F)P(=O)(O)O)cc1)C(=O)O` [(2R)-2-{[(1S)-1-carbamoyl-2-phenylethyl]carbamoyl}-2-(1-{4-[difluoro(phosphono)methyl]phenyl}acetamido)acetic acid] gave an IC50 (pH 7, 22 °C) of 33 µM.

`NC(=O)[C@H](Cc1ccc(C(F)(F)P(=O)(O)O)cc1)NC(=O)[C@@H](NC(=O)Cc1ccc(C(F)(F)P(=O)(O)O)cc1)C(=O)O` [(2R)-2-{[(1S)-1-carbamoyl-2-{4-[difluoro(phosphono)methyl]phenyl}ethyl]carbamoyl}-2-(1-{4-[difluoro(phosphono)methyl]phenyl}acetamido)acetic acid] was tested, and the IC50 (pH 7, 22 °C) was 0.0004 µM.

Compound `O=C1C[C@@H](c2ccc(C[C@H](Nc3nc4c(F)cc(Cl)cc4s3)c3nc4ccccc4[nH]3)cc2)S(=O)(=O)N1` [(5S)-5-{4-[(2S)-2-(1H-1,3-benzodiazol-2-yl)-2-[(6-chloro-4-fluoro-1,3-benzothiazol-2-yl)amino]ethyl]phenyl}-1,2-thiazolidine-1,1,3-trione] has an IC50 (pH 7, 22 °C) of 1.8 µM.

Compound `Cc1ccc2nc(N[C@@H](Cc3ccc([C@@H]4CC(=O)NS4(=O)=O)cc3)c3nc4ccccc4[nH]3)sc2c1` [(5S)-5-{4-[(2S)-2-(1H-1,3-benzodiazol-2-yl)-2-[(6-methyl-1,3-benzothiazol-2-yl)amino]ethyl]phenyl}-1,2-thiazolidine-1,1,3-trione] has an IC50 of 1.1 µM.

`NC(=O)[C@H](Cc1ccc(C(F)(F)P(=O)(O)O)cc1)NC(=O)CNC(=O)Cc1ccc(C(F)(F)P(=O)(O)O)cc1` [({4-[(2S)-2-carbamoyl-2-[2-(1-{4-[difluoro(phosphono)methyl]phenyl}acetamido)acetamido]ethyl]phenyl}difluoromethyl)phosphonic acid] showed an IC50 (pH 7, 22 °C) of 0.042 µM.

`NC(=O)[C@H](Cc1ccc(C(F)(F)P(=O)(O)O)cc1)NC(=O)[C@H](Cc1ccccc1)NC(=O)Cc1ccc(C(F)(F)P(=O)(O)O)cc1` [({4-[(2S)-2-carbamoyl-2-[(2S)-2-(1-{4-[difluoro(phosphono)methyl]phenyl}acetamido)-3-phenylpropanamido]ethyl]phenyl}difluoromethyl)phosphonic acid] showed an IC50 (pH 7, 22 °C) of 0.0017 µM.

`CC(=O)N[C@@H](Cc1ccccc1)C(=O)N[C@@H](Cc1ccc(C(F)(F)P(=O)(O)O)cc1)C(N)=O` [DFMP 5] (Ac-Phe-[F2Pmp]-NH2) showed an IC50 (pH 7, 22 °C) of 1.7 µM.

In the case of `O=C1CC(c2ccc(C[C@H](NS(=O)(=O)c3ccccc3)c3nc4ccccc4[nH]3)cc2Br)S(=O)(=O)N1` (stereo partly drawn) [N-[(1S)-1-(1H-1,3-benzodiazol-2-yl)-2-[3-bromo-4-(1,1,3-trioxo-1,2-thiazolidin-5-yl)phenyl]ethyl]benzenesulfonamide], the IC50 is reported as 0.17 µM.

`O=C1CC(c2ccc(C[C@H](NS(=O)(=O)c3ccccc3)c3nc4ccccc4[nH]3)cc2Cl)S(=O)(=O)N1` (stereo partly drawn) [N-[(1S)-1-(1H-1,3-benzodiazol-2-yl)-2-[3-chloro-4-(1,1,3-trioxo-1,2-thiazolidin-5-yl)phenyl]ethyl]benzenesulfonamide] was tested, and the IC50 was 0.075 µM.

In the case of `N#Cc1cc(C[C@H](NS(=O)(=O)c2ccccc2)c2nc3ccccc3[nH]2)ccc1C1CC(=O)NS1(=O)=O` (stereo partly drawn) [N-[(1S)-1-(1H-1,3-benzodiazol-2-yl)-2-[3-cyano-4-(1,1,3-trioxo-1,2-thiazolidin-5-yl)phenyl]ethyl]benzenesulfonamide], the IC50 is reported as 0.031 µM.

With `C#Cc1cc(C[C@H](NS(=O)(=O)c2ccccc2)c2nc3ccccc3[nH]2)ccc1C1CC(=O)NS1(=O)=O` (stereo partly drawn) [N-[(1S)-1-(1H-1,3-benzodiazol-2-yl)-2-[3-ethynyl-4-(1,1,3-trioxo-1,2-thiazolidin-5-yl)phenyl]ethyl]benzenesulfonamide] the IC50 was 0.12 µM.

With `O=C1CC(c2ccc(C[C@H](NS(=O)(=O)c3ccccc3)c3nc4ccccc4[nH]3)cc2F)S(=O)(=O)N1` (stereo partly drawn) [N-[(1S)-1-(1H-1,3-benzodiazol-2-yl)-2-[3-fluoro-4-(1,1,3-trioxo-1,2-thiazolidin-5-yl)phenyl]ethyl]benzenesulfonamide] the IC50 was 0.034 µM.

In the case of `O=C1CC(c2ccc(C[C@H](NC(=O)C(F)(F)c3ccccc3)c3nc4ccccc4[nH]3)cc2)S(=O)(=O)N1` (stereo partly drawn) [N-[(1S)-1-(1H-1,3-benzodiazol-2-yl)-2-[4-(1,1,3-trioxo-1,2-thiazolidin-5-yl)phenyl]ethyl]-2,2-difluoro-2-phenylacetamide], the IC50 is reported as 0.2 µM.

`CC(F)(F)C(=O)N[C@@H](Cc1ccc(C2CC(=O)NS2(=O)=O)cc1)c1nc2ccccc2[nH]1` (stereo partly drawn) [N-[(1S)-1-(1H-1,3-benzodiazol-2-yl)-2-[4-(1,1,3-trioxo-1,2-thiazolidin-5-yl)phenyl]ethyl]-2,2-difluoropropanamide] gave an IC50 of 0.3 µM.

`O=C1CC(c2ccc(C[C@H](NS(=O)(=O)c3cc(C(F)(F)F)ccc3C(F)(F)F)c3nc4ccccc4[nH]3)cc2)S(=O)(=O)N1` (stereo partly drawn) [N-[(1S)-1-(1H-1,3-benzodiazol-2-yl)-2-[4-(1,1,3-trioxo-1,2-thiazolidin-5-yl)phenyl]ethyl]-2,5-bis(trifluoromethyl)benzene-1-sulfonamide] showed an IC50 of 0.21 µM.

`O=C1CC(c2ccc(C[C@H](NS(=O)(=O)c3ccc(C(F)(F)F)cc3Br)c3nc4ccccc4[nH]3)cc2)S(=O)(=O)N1` (stereo partly drawn) [N-[(1S)-1-(1H-1,3-benzodiazol-2-yl)-2-[4-(1,1,3-trioxo-1,2-thiazolidin-5-yl)phenyl]ethyl]-2-bromo-4-(trifluoromethyl)benzene-1-sulfonamide] was tested, and the IC50 was 0.17 µM.

With `O=C1CC(c2ccc(C[C@H](NS(=O)(=O)c3ccccc3Cl)c3nc4ccccc4[nH]3)cc2)S(=O)(=O)N1` (stereo partly drawn) [N-[(1S)-1-(1H-1,3-benzodiazol-2-yl)-2-[4-(1,1,3-trioxo-1,2-thiazolidin-5-yl)phenyl]ethyl]-2-chlorobenzene-1-sulfonamide] the IC50 was 0.16 µM.

For `Cc1ccccc1S(=O)(=O)N[C@@H](Cc1ccc(C2CC(=O)NS2(=O)=O)cc1)c1nc2ccccc2[nH]1` (stereo partly drawn) [N-[(1S)-1-(1H-1,3-benzodiazol-2-yl)-2-[4-(1,1,3-trioxo-1,2-thiazolidin-5-yl)phenyl]ethyl]-2-methylbenzene-1-sulfonamide], the IC50 was 0.3 µM.

`CC(C)C(=O)N[C@@H](Cc1ccc(C2CC(=O)NS2(=O)=O)cc1)c1nc2ccccc2[nH]1` (stereo partly drawn) [N-[(1S)-1-(1H-1,3-benzodiazol-2-yl)-2-[4-(1,1,3-trioxo-1,2-thiazolidin-5-yl)phenyl]ethyl]-2-methylpropanamide] showed an IC50 of 3.2 µM.

With `O=C1CC(c2ccc(C[C@H](NS(=O)(=O)c3cc(Cl)cc(Cl)c3)c3nc4ccccc4[nH]3)cc2)S(=O)(=O)N1` (stereo partly drawn) [N-[(1S)-1-(1H-1,3-benzodiazol-2-yl)-2-[4-(1,1,3-trioxo-1,2-thiazolidin-5-yl)phenyl]ethyl]-3,5-dichlorobenzene-1-sulfonamide] the IC50 was 0.051 µM.

`O=C1CC(c2ccc(C[C@H](NS(=O)(=O)c3cccc(Oc4ccc(C(F)(F)F)cc4)c3)c3nc4ccccc4[nH]3)cc2)S(=O)(=O)N1` (stereo partly drawn) [N-[(1S)-1-(1H-1,3-benzodiazol-2-yl)-2-[4-(1,1,3-trioxo-1,2-thiazolidin-5-yl)phenyl]ethyl]-3-[4-(trifluoromethyl)phenoxy]benzene-1-sulfonamide] gave an IC50 of 0.22 µM.

`O=C1CC(c2ccc(C[C@H](NS(=O)(=O)c3cccc(F)c3)c3nc4ccccc4[nH]3)cc2)S(=O)(=O)N1` (stereo partly drawn) [N-[(1S)-1-(1H-1,3-benzodiazol-2-yl)-2-[4-(1,1,3-trioxo-1,2-thiazolidin-5-yl)phenyl]ethyl]-3-fluorobenzene-1-sulfonamide] was tested, and the IC50 was 0.066 µM.

In the case of `Cc1cc(S(=O)(=O)N[C@@H](Cc2ccc(C3CC(=O)NS3(=O)=O)cc2)c2nc3ccccc3[nH]2)ccc1-c1ccccc1` (stereo partly drawn) [N-[(1S)-1-(1H-1,3-benzodiazol-2-yl)-2-[4-(1,1,3-trioxo-1,2-thiazolidin-5-yl)phenyl]ethyl]-3-methyl-4-phenylbenzene-1-sulfonamide], the IC50 is reported as 0.09 µM.

For `O=C1CC(c2ccc(C[C@H](NS(=O)(=O)c3cccc(Oc4ccccc4)c3)c3nc4ccccc4[nH]3)cc2)S(=O)(=O)N1` (stereo partly drawn) [N-[(1S)-1-(1H-1,3-benzodiazol-2-yl)-2-[4-(1,1,3-trioxo-1,2-thiazolidin-5-yl)phenyl]ethyl]-3-phenoxybenzene-1-sulfonamide], the IC50 was 0.11 µM.

`O=C(CCc1ccccc1)N[C@@H](Cc1ccc(C2CC(=O)NS2(=O)=O)cc1)c1nc2ccccc2[nH]1` (stereo partly drawn) [N-[(1S)-1-(1H-1,3-benzodiazol-2-yl)-2-[4-(1,1,3-trioxo-1,2-thiazolidin-5-yl)phenyl]ethyl]-3-phenylpropanamide] showed an IC50 of 0.6 µM.

`CC(C)c1ccc(S(=O)(=O)N[C@@H](Cc2ccc(C3CC(=O)NS3(=O)=O)cc2)c2nc3ccccc3[nH]2)cc1` (stereo partly drawn) [N-[(1S)-1-(1H-1,3-benzodiazol-2-yl)-2-[4-(1,1,3-trioxo-1,2-thiazolidin-5-yl)phenyl]ethyl]-4-(propan-2-yl)benzene-1-sulfonamide] showed an IC50 of 0.1 µM.

With `O=C1CC(c2ccc(C[C@H](NS(=O)(=O)c3ccc(Oc4ccncc4)cc3)c3nc4ccccc4[nH]3)cc2)S(=O)(=O)N1` (stereo partly drawn) [N-[(1S)-1-(1H-1,3-benzodiazol-2-yl)-2-[4-(1,1,3-trioxo-1,2-thiazolidin-5-yl)phenyl]ethyl]-4-(pyridin-4-yloxy)benzene-1-sulfonamide] the IC50 was 0.12 µM.

Compound `O=C1CC(c2ccc(C[C@H](NS(=O)(=O)c3ccc(Br)c(C(F)(F)F)c3)c3nc4ccccc4[nH]3)cc2)S(=O)(=O)N1` (stereo partly drawn) [N-[(1S)-1-(1H-1,3-benzodiazol-2-yl)-2-[4-(1,1,3-trioxo-1,2-thiazolidin-5-yl)phenyl]ethyl]-4-bromo-3-(trifluoromethyl)benzene-1-sulfonamide] has an IC50 of 0.04 µM.

`Cc1ccc(S(=O)(=O)N[C@@H](Cc2ccc(C3CC(=O)NS3(=O)=O)cc2)c2nc3ccccc3[nH]2)cc1` (stereo partly drawn) [N-[(1S)-1-(1H-1,3-benzodiazol-2-yl)-2-[4-(1,1,3-trioxo-1,2-thiazolidin-5-yl)phenyl]ethyl]-4-methylbenzene-1-sulfonamide] showed an IC50 of 0.08 µM.

`CC(=O)N[C@@H](Cc1ccc(C2CC(=O)NS2(=O)=O)cc1)c1nc2ccccc2[nH]1` (stereo partly drawn) [N-[(1S)-1-(1H-1,3-benzodiazol-2-yl)-2-[4-(1,1,3-trioxo-1,2-thiazolidin-5-yl)phenyl]ethyl]acetamide] showed an IC50 of 2.6 µM.
